This note sets out measurements from US8148391B2 (Cephalon, Inc., priority 2006, dated 2012).

Assay [1] concerns the target T1, baculovirus-expressed ALK (Homo sapiens, UniProt Q9UM73).
T1 construct: host or cells: baculovirus expression system
The assay can be described thus: ALK Kinase Assay (ELISA-type, time-resolved fluorescence). Type of assay: biochemical. The following applies: ALK kinase inhibition, 1 μM ATP (Km level); read-out: ALK Activity. The essentials: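 Substrate coating: phospholipase C-γ, 10 μg/mL in TBS. Kinase step: 30 ng/ml ALK, 15 min, 37° C. Detection and analysis: Eu-N1 PT66 antibody, with IC50 fitted as a sigmoidal variable-slope dose-response curve.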
A general note: In an ELISA, binding on a coated surface is turned into a signal by an enzyme label.

For assay [2], the target named is T2, c-Met (cytoplasmic domain) (Homo sapiens, UniProt P08581).
T2 construct: 10 ng/mL c-Met (cytoplasmic domain, Invitrogen Corporation #PV3143); purchased Invitrogen Corporation PV3143
T2 sequence (P08581 956-1390 limits assumed): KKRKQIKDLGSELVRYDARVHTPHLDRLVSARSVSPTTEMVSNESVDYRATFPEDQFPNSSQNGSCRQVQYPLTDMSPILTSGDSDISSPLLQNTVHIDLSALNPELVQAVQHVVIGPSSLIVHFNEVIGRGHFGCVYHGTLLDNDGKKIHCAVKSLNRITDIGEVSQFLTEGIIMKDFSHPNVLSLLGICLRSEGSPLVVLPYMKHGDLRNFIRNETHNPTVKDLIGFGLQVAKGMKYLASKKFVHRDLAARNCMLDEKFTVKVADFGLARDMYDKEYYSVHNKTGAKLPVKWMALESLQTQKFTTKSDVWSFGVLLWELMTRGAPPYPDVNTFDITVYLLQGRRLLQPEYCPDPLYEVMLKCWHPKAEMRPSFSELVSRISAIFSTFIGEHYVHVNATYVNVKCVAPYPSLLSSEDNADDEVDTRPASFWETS
The assay can be described thus: c-Met Kinase Assay (same methods as for ALK, with modifications). As to conditions: c-Met kinase inhibition, 1 μM ATP (Km level); read-out: cMet Activity. Type of assay: biochemical. The essentials: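 Wells were coated with 10 μg/mL phospholipase C-γ substrate in TBS, and reactions were started with 10 ng/mL c-Met cytoplasmic domain and run at 37° C for 15 minutes. Phosphorylated product was detected with Eu-N1-labeled PT66 antibody. IC50 values came from sigmoidal variable-slope fits of percent inhibition versus log compound concentration.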

T1 sequence (Q9UM73 19-1620): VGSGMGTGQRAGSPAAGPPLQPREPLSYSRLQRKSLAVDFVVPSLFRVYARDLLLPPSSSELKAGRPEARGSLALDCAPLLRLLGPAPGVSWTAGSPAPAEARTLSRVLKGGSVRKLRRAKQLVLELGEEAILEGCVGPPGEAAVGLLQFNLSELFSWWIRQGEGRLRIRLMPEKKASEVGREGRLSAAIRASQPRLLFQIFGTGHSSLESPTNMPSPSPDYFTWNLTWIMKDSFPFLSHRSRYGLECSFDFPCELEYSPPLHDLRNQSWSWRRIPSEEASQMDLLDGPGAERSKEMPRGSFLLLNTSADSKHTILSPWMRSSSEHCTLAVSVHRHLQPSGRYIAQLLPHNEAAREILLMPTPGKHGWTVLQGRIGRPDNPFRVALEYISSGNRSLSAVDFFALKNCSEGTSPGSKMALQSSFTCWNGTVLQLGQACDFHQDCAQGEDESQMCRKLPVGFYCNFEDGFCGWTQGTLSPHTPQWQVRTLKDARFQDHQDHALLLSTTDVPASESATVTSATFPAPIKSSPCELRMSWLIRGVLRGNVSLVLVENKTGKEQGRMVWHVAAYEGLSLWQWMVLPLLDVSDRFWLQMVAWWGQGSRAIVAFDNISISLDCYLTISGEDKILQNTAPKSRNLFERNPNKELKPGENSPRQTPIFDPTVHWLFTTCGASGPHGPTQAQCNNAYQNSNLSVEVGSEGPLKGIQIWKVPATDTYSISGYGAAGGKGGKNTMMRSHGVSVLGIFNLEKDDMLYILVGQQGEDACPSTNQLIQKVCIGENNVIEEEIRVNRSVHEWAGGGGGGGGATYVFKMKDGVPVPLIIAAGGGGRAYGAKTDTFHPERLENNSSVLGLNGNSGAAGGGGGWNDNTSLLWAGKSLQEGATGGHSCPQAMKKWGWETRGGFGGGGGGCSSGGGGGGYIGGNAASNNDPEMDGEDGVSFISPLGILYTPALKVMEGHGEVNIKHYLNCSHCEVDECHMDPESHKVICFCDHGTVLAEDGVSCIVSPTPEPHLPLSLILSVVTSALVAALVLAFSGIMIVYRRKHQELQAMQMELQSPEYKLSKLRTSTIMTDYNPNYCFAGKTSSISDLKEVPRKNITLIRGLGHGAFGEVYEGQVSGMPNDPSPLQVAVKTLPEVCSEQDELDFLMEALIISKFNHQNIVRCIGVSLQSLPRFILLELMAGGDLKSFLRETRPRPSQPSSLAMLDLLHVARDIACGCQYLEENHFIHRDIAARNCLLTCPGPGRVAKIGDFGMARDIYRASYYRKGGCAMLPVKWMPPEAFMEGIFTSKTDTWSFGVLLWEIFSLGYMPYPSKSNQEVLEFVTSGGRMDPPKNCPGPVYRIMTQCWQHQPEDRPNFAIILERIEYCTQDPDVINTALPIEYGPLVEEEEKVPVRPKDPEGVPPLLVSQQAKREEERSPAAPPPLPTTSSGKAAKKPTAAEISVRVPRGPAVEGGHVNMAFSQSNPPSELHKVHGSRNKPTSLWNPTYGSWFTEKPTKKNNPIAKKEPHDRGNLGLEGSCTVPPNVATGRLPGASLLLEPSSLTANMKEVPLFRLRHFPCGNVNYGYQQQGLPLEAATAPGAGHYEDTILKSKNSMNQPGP

With `COc1cc2c(cc1Nc1ncc(Cl)c(N[C@@H]3CCCC[C@H]3NS(C)(=O)=O)n1)CCNC(=O)C2` [Example 263, N-{(1R,2R)-2-[5-Chloro-2-(8-methoxy-2-oxo-2,3,4,5-tetrahydro-1H-benzo[d]azepin-7-ylamino)-pyrimidin-4-ylamino]-cyclohexyl}-methanesulfonamide], the IC50 was less than 100 nM in assay [1] and more than 10000 nM in assay [2].
Consider `CNC(=O)c1ccccc1Nc1nc(Nc2cc3c(cc2OC)CC(=O)NCC3)ncc1Cl` [Example 264, 2-[5-Chloro-2-(8-methoxy-2-oxo-2,3,4,5-tetrahydro-1H-benzo[d]azepin-7-ylamino)-pyrimidin-4-ylamino]-N-methyl-benzamide], for which the IC50 in assay [1] was less than 100 nM; in assay [2] it was 1000 to 10000 nM.
On to `CCNC(=O)c1ccccc1Nc1nc(Nc2cc3c(cc2OC)CC(=O)NCC3)ncc1Cl` [Example 265, 2-[5-Chloro-2-(8-methoxy-2-oxo-2,3,4,5-tetrahydro-1H-benzo[d]azepin-7-ylamino)-pyrimidin-4-ylamino]-N-ethyl-benzamide], for which the IC50 in assay [1] is less than 100 nM; in assay [2], 100 to 1000 nM.
Turning to `CCN1CC2CCC(C1)c1cc(Nc3ncc(Cl)c(Nc4ccccc4C(=O)NC)n3)ccc12` (stereo not drawn) [Example 271, 2-[5-Chloro-2-(10-ethyl-10-aza-tricyclo[6.3.2.0*2,7*]trideca-2,4,6-trien-4-ylamino)-pyrimidin-4-ylamino]-N-methyl-benzamide], the IC50 in assay [1] and in assay [2] was less than 100 nM throughout.
With `CCN1CC2CCC(C1)c1cc(Nc3ncc(Cl)c(Nc4ccccc4S(=O)(=O)NC)n3)ccc12` (stereo not drawn) [Example 272, 2-[5-Chloro-2-(10-ethyl-10-aza-tricyclo[6.3.2.0*2,7*]trideca-2,4,6-trien-4-ylamino)-pyrimidin-4-ylamino]-N-methyl-benzenesulfonamide], the IC50 in assay [1] was less than 100 nM; in assay [2], 100 to 1000 nM.
As for `CNC(=O)c1ccccc1Nc1nc(Nc2ccc3c(c2)C2CCC3CN(C(C)C)C2)ncc1Cl` (stereo not drawn) [Example 273, 2-[5-Chloro-2-(10-isopropyl-10-aza-tricyclo[6.3.2.0*2,7*]trideca-2,4,6-trien-4-ylamino)-pyrimidin-4-ylamino]-N-methyl-benzamide], the IC50 in assay [1] and in assay [2] was less than 100 nM each time.
Turning to `CNS(=O)(=O)c1ccccc1Nc1nc(Nc2ccc3c(c2)C2CCC3CN(C(C)C)C2)ncc1Cl` (stereo not drawn) [Example 274, 2-[5-Chloro-2-(10-isopropyl-10-aza-tricyclo[6.3.2.0*2,7*]trideca-2,4,6-trien-4-ylamino)-pyrimidin-4-ylamino]-N-methyl-benzenesulfonamide], the IC50 in assay [1] and in assay [2] was less than 100 nM each time.
As for `CNS(=O)(=O)c1ccccc1Nc1nc(Nc2ccc3c(c2)C2CCC3CN(CC#N)C2)ncc1Cl` (stereo not drawn) [Example 275, 2-[5-Chloro-2-(10-cyanomethyl-10-aza-tricyclo[6.3.2.0*2,7*]trideca-2,4,6-trien-4-ylamino)-pyrimidin-4-ylamino]-N-methyl-benzenesulfonamide], the IC50 in assay [1] and in assay [2] was less than 100 nM each time.
Regarding `CNC(=O)c1ccccc1Nc1nc(Nc2ccc3c(c2)C2CCC3CN(C(=O)C(F)(F)F)C2)ncc1Cl` (stereo not drawn) [Example 276, 2-{5-Chloro-2-[10-(2,2,2-trifluoro-acetyl)-10-aza-tricyclo[6.3.2.0*2,7*]trideca-2,4,6-trien-4-ylamino]-pyrimidin-4-ylamino}-N-methyl-benzamide], the IC50 in assay [1] was 100 to 1000 nM; in assay [2], less than 100 nM.
In the case of `CNC(=O)c1ccccc1Nc1nc(Nc2ccc3c(c2)C2CCC3CNC2)ncc1Cl` (stereo not drawn) [Example 277, 2-[2-(10-Aza-tricyclo[6.3.2.0*2,7*]trideca-2,4,6-trien-4-ylamino)-5-chloro-pyrimidin-4-ylamino]-N-methyl-benzamide], the IC50 in assay [1] and in assay [2] was less than 100 nM throughout.
`CNC(=O)c1ccccc1Nc1nc(Nc2ccc3c(c2)C2CCC3CN(S(C)(=O)=O)C2)ncc1Cl` (stereo not drawn) [Example 278, 2-[5-Chloro-2-(10-methanesulfonyl-10-aza-tricyclo[6.3.2.0*2,7*]trideca-2,4,6-trien-4-ylamino)-pyrimidin-4-ylamino]-N-methyl-benzamide]: the IC50 in assay [1] and in assay [2] was less than 100 nM in each case.
For the compound `C#CCN1CC2CCC(C1)c1cc(Nc3ncc(Cl)c(Nc4ccccc4C(=O)NC)n3)ccc12` (stereo not drawn) [Example 279, 2-[5-Chloro-2-(10-prop-2-ynyl-10-aza-tricyclo[6.3.2.0*2,7*]trideca-2,4,6-trien-4-ylamino)-pyrimidin-4-ylamino]-N-methyl-benzamide], the IC50 in assay [1] and in assay [2] was less than 100 nM each time.
As for `CNC(=O)c1ccccc1Nc1nc(Nc2ccc3c(c2)C2CCC3CN(CCF)C2)ncc1Cl` (stereo not drawn) [Example 280, 2-{5-Chloro-2-[10-(2-fluoro-ethyl)-10-aza-tricyclo[6.3.2.0*2,7*]trideca-2,4,6-trien-4-ylamino]-pyrimidin-4-ylamino}-N-methyl-benzamide], the IC50 in assay [1] and in assay [2] was less than 100 nM throughout.
In the case of `CNC(=O)c1ccccc1Nc1nc(Nc2ccc3c(c2)C2CCC3CN(CC#N)C2)ncc1Cl` (stereo not drawn) [Example 281, 2-[5-Chloro-2-(10-cyanomethyl-10-aza-tricyclo[6.3.2.0*2,7*]trideca-2,4,6-trien-4-ylamino)-pyrimidin-4-ylamino]-N-methyl-benzamide], the IC50 in assay [1] and in assay [2] was less than 100 nM each time.
As to `CNC(=O)c1ccccc1Nc1nc(Nc2ccc3c(c2)C2CCC3CN(CCOC)C2)ncc1Cl` (stereo not drawn) [Example 282, 2-{5-Chloro-2-[10-(2-methoxy-ethyl)-10-aza-tricyclo[6.3.2.0*2,7*]trideca-2,4,6-trien-4-ylamino]-pyrimidin-4-ylamino}-N-methyl-benzamide], the IC50 in assay [1] and in assay [2] was less than 100 nM each time.
In the case of `CNC(=O)c1ccccc1Nc1nc(Nc2ccc3c(c2)C2CCC3CN(C(C)=O)C2)ncc1Cl` (stereo not drawn) [Example 283, 2-[2-(10-Acetyl-10-aza-tricyclo[6.3.2.0*2,7*]trideca-2,4,6-trien-4-ylamino)-5-chloro-pyrimidin-4-ylamino]-N-methyl-benzamide], the IC50 in assay [1] and in assay [2] was less than 100 nM in each case.
Turning to `CNS(=O)(=O)c1ccccc1Nc1nc(Nc2ccc3c(c2)C2CCC3CN(C(=O)C(F)(F)F)C2)ncc1Cl` (stereo not drawn) [Example 284, 2-{5-Chloro-2-[10-(2,2,2-trifluoro-acetyl)-10-aza-tricyclo[6.3.2.0*2,7*]trideca-2,4,6-trien-4-ylamino]-pyrimidin-4-ylamino}-N-methyl-benzenesulfonamide], the results for the IC50 in assay [1] and in assay [2] were less than 100 nM and 100 to 1000 nM, respectively.
On to `CNS(=O)(=O)c1ccccc1Nc1nc(Nc2ccc3c(c2)C2CCC3CNC2)ncc1Cl` (stereo not drawn) [Example 285, 2-[2-(10-Aza-tricyclo[6.3.2.0*2,7*]trideca-2,4,6-trien-4-ylamino)-5-chloro-pyrimidin-4-ylamino]-N-methyl-benzenesulfonamide], for which the IC50 in assay [1] and in assay [2] was less than 100 nM each time.
As to `CNS(=O)(=O)c1ccccc1Nc1nc(Nc2ccc3c(c2)C2CCC3CN(S(C)(=O)=O)C2)ncc1Cl` (stereo not drawn) [Example 286, 2-[5-Chloro-2-(10-methanesulfonyl-10-aza-tricyclo[6.3.2.0*2,7*]trideca-2,4,6-trien-4-ylamino)-pyrimidin-4-ylamino]-N-methyl-benzenesulfonamide], the IC50 in assay [1] and in assay [2] was less than 100 nM each time.
`C#CCN1CC2CCC(C1)c1cc(Nc3ncc(Cl)c(Nc4ccccc4S(=O)(=O)NC)n3)ccc12` (stereo not drawn) [Example 287, 2-[5-Chloro-2-(10-prop-2-ynyl-10-aza-tricyclo[6.3.2.0*2,7*]trideca-2,4,6-trien-4-ylamino)-pyrimidin-4-ylamino]-N-methyl-benzenesulfonamide]: the IC50 was less than 100 nM in assay [1] and 100 to 1000 nM in assay [2].
As to `C#CCN1CC2CCC(C1)c1cc(Nc3ncc(Cl)c(Nc4ccccc4S(=O)(=O)N(C)CC#C)n3)ccc12` (stereo not drawn) [Example 288, 2-[5-Chloro-2-(10-prop-2-ynyl-10-aza-tricyclo[6.3.2.0*2,7*]trideca-2,4,6-trien-4-ylamino)-pyrimidin-4-ylamino]-N-methyl-N-prop-2-ynyl-benzenesulfonamide], the IC50 in assay [1] is less than 100 nM; in assay [2], 100 to 1000 nM.
Regarding `CNS(=O)(=O)c1ccccc1Nc1nc(Nc2ccc3c(c2)C2CCC3CN(C(C)=O)C2)ncc1Cl` (stereo not drawn) [Example 289, 2-[2-(10-Acetyl-10-aza-tricyclo[6.3.2.0*2,7*]trideca-2,4,6-trien-4-ylamino)-5-chloro-pyrimidin-4-ylamino]-N-methyl-benzenesulfonamide], the IC50 in assay [1] was less than 100 nM; in assay [2], 100 to 1000 nM.
For the compound `COc1cc(N2CCOCC2)ccc1Nc1nc(Nc2ccc3c(c2)C2CCC3CN(C(=O)C(F)(F)F)C2)ncc1Cl` (stereo not drawn) [Example 290, 2-{4-[5-Chloro-4-(2-methoxy-4-morpholin-4-yl-phenylamino)-pyrimidin-2-ylamino]-10-aza-tricyclo[6.3.2.0*2,7*]trideca-2,4,6-trien-10-yl}-2,2,2-trifluoro-ethanone], the figures for the IC50 in assay [1] and in assay [2] were 100 to 1000 nM and more than 10000 nM, respectively.
Regarding `CS(=O)(=O)Nc1ccccc1Nc1nc(Nc2ccc3c(c2)C2CCC3CN(C(=O)C(F)(F)F)C2)ncc1Cl` (stereo not drawn) [Example 291, N-(2-{5-Chloro-2-[10-(2,2,2-trifluoro-acetyl)-10-aza-tricyclo[6.3.2.0*2,7*]trideca-2,4,6-trien-4-ylamino]-pyrimidin-4-ylamino}-phenyl)-methanesulfonamide], the IC50 in assay [1] is less than 100 nM; in assay [2], 1000 to 10000 nM.
